The target of assay [1] is T1, Serine palmitoyltransferase (Sphingomonas paucimobilis) (UniProt Q93UV0).
T1 sequence (whole entry): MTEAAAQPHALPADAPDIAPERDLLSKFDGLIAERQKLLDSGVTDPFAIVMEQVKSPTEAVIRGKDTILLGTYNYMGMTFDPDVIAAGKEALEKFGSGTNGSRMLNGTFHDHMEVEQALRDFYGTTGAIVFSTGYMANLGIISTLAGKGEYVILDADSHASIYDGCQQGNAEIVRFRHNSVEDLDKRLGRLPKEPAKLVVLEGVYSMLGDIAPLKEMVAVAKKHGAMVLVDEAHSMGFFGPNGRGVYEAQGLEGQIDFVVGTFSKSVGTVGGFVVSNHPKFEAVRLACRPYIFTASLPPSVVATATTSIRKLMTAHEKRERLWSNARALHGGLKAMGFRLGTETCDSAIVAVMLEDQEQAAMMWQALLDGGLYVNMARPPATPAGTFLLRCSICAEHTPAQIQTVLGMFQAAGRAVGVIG
Nature of the assay: Inhibition of Sphingomonas paucimobilis recombinant SPT expressed in Escherichia coli BL21(DE3) assessed as remaining activity at 5 mM after 30 mins by dialysis technique relative to control.

Assay [2] concerns the target T1, Serine palmitoyltransferase (Sphingomonas paucimobilis). Description: Reversible inhibition of Sphingomonas paucimobilis recombinant SPT expressed in Escherichia coli BL21(DE3) assessed as restoration of enzyme activity at 5 mM after 30 mins by dialysis technique in presence of PLP relative to control. Also on record: scale not given: the % may be the effect or the level left.

For assay [3] the target is unchanged. Description: Binding affinity to Sphingomonas paucimobilis recombinant SPT expressed in Escherichia coli BL21(DE3) at 10 mM after 30 mins by UV-vis spectroscopic analysis.
The target is the same in assay [4]. Description: Inhibition of Sphingomonas paucimobilis recombinant SPT expressed in Escherichia coli BL21(DE3) by membrane filtration assay.
The target is the same in assay [5]. Nature of the assay: Inhibition of Sphingomonas paucimobilis recombinant SPT expressed in Escherichia coli BL21(DE3) by dialysis technique in presence of PLP and potassium phosphate buffer.
Assay [6] shares this target. Nature of the assay: Binding affinity to Sphingomonas paucimobilis recombinant SPT expressed in Escherichia coli BL21(DE3) at 5 mM by ESI-FT-ICR mass spectrometric analysis.
Assay [7] shares this target. Description: Binding affinity to Sphingomonas paucimobilis recombinant SPT expressed in Escherichia coli BL21(DE3) at 10 mM by UV-vis spectroscopic analysis. Particulars: TDE = time-dependent effect.
Assay [8] shares this target. Nature of the assay: Reversible inhibition of Sphingomonas paucimobilis recombinant SPT expressed in Escherichia coli BL21(DE3) at 1 mM after 1 to 60 mins by UV-vis spectroscopic analysis in presence of Tris-HCl buffer.
Assay [9] shares this target. Description: Reversible inhibition of Sphingomonas paucimobilis recombinant SPT expressed in Escherichia coli BL21(DE3) at 1 mM after 1 to 60 mins by UV-vis spectroscopic analysis in presence of potassium phosphate buffer.

Activity calls are given as the source filed them. The rule behind the calls is not given here.

For `N[C@H](CS)C(=O)O`, the Activity worked out at 22% in [1] and 76% in assay [2].

With `CC(C)(S)[C@H](N)C(=O)O`, the Activity in [1] was found to be 3%; in assay [2], 80%. Moreover, the outcome in assay [3] and in assay [6] was Active. For the same compound, the inhibition entry in [4] and in assay [5] was “Active” in each case.

In the case of `CC(C)(S)[C@@H](N)C(=O)O`, the Activity in assay [1] amounted to 34%; in assay [2] it was 57%.

In the case of `N[C@@H](CS)C(=O)O`, the Activity in assay [1] is 24%; in assay [2], 83%; in assay [7], “tde”. Further, the inhibition entry in [8] is “Active”. The inhibition result in assay [9] is “inactive”.

These data come from ChEMBL document CHEMBL3217671, “l-Penicillamine is a mechanism-based inhibitor of serine palmitoyltransferase by forming a pyridoxal-5-phosphate-thiazolidine adduct” (Medchemcomm, 2012).
